Test results as given in patent US5420140A, “Difluorinated quinolones useful for treating bacterial infections” (Bouchara S.A., priority 1991, dated 1995).
In brackets after ≈: the same amount, converted by molar mass.

Key:
[1] = tested on: Acinetobacter Baumanii ATCC 17904; assay: Determination of MIC and MBC by microdilution method, Acinetobacter; format: cell-based; settings: for MIC / MBC: Acinetobacter baumannii; for MIC: ATCC17904, 18 h, read-out: Minimal inhibitory concentration (MIC); for MBC: ATCC17904, Acinetobacter Baumanii ATCC 17904, read-out: Minimal bactericidal concentration (MBC)
Description: The compound have been tested towards 7 reference strains: […]
(§1) The determination of minimal inhibitory concentrations (MIC) has been performed using a microdution method (microplates and inoculator Dynatech) in liquid medium (MUELLER-HINTON broth) under a volume of 100 μl and for a range of concentrations from 128 to 0.06 mg/l, prepared from a mother liquor of antibiotics titrating 512 mg/l. The preparation of these mother liquors has been performed and vary depending on the molecules as a function of the solubility criterions. Inoculation has been done by adding in each will, 10 μl of a dilution in saline of 18 hours old broth in a brain-heart broth, such as each well contains about 10^6 bacterias/ml.
(§2) The Minimal Inhibitory Concentrations are read as the first concentration of antibiotic which will not give a growth macroscopically detectable after 18 hours incubating at 37°.

[2] = tested on: Staphylococcus aureus ATCC 25923; assay: Determination of MIC and MBC by microdilution method, Staphylococcus aureus ATCC 25923; format: cell-based; settings: for MIC / MBC: Staphylococcus aureus; for MIC: ATCC25923, 18 h, read-out: Minimal inhibitory concentration (MIC); for MBC: ATCC25923, S. aureus ATCC 25923, read-out: Minimal bactericidal concentration (MBC)
Description: (§3) The compound have been tested towards 7 reference strains:
Staphylococcus aureus ATCC 25923
as §1, §2

[3] = tested on: Escherichia coli ATCC 25922; assay: Determination of MIC and MBC by microdilution method, Escherichia coli ATCC 25922; format: cell-based; settings: E. coli ATCC 25922; for MIC / MBC: Escherichia coli, ATCC25922; for MIC: read-out: Minimal inhibitory concentration (MIC); for MBC: read-out: Minimal bactericidal concentration (MBC)
Description: as §3
Escherichia coli ATCC 25922
as §1, §2

[4] = tested on: Pseudomonas aeruginosa ATCC 22853; assay: Determination of MIC and MBC by microdilution method, Pseudomonas aeruginosa ATCC 22853; format: cell-based; settings: for MIC / MBC: Pseudomonas aeruginosa; for MIC: ATCC22853, 18 h, read-out: Minimal inhibitory concentration (MIC); for MBC: ATCC22853, P. aeruginosa ATCC 22853, read-out: Minimal bactericidal concentration (MBC)
Description: as §3
Pseudomonas aeruginosa ATCC 22853
(§4) The preparation of these mother liquors has been performed and vary depending on the molecules as a function of the solubility criterions. Inoculation has been done by adding in each will, 10 μl of a dilution in saline of 18 hours old broth in a brain-heart broth, such as each well contains about 10^6 bacterias/ml. […]

S. aureus CB-951 = assay: Determination of MIC and MBC by microdilution method, S. aureus CB-951; format: cell-based, Staphylococcus aureus; settings: erythromycinolincomycino, pefloxacino resistant; for MIC / MBC: Staphylococcus aureus; for MIC: CB951, 18 h, read-out: Minimal inhibitory concentration (MIC); for MBC: CB951, S. aureus CB-951, methicillino, read-out: Minimal bactericidal concentration (MBC)
Description: as §3
Staphylococcus aureus CB 951
as §1, §2

[5] = tested on: Streptococcus faecalis ATCC 8043; assay: Determination of MIC and MBC by microdilution method, Streptococcus faecalis ATCC 8043; format: cell-based; settings: for MBC / MIC: Enterococcus faecalis; for MBC: ATCC8043, S. faecalis ATCC 8043, read-out: Minimal bactericidal concentration (MBC); for MIC: ATCC8043, read-out: Minimal inhibitory concentration (MIC)
Description: as §3
Streptococcus faecalis ATCC 8043
as §4

[6] = Acinetobacter Baumanii ATCC 17904, Mueller-Hinton broth, 18 hours at 37°
[7] = S. aureus ATCC 25923, Mueller-Hinton broth, 18 hours at 37°
[8] = Mueller-Hinton broth, 18 hours at 37°
[9] = P. aeruginosa ATCC 22853, Mueller-Hinton broth, 18 hours at 37°
[10] = S. aureus CB-951, methicillino, Mueller-Hinton broth, 18 hours at 37°
[11] = S. faecalis ATCC 8043, Mueller-Hinton broth, 18 hours at 37°

MIC [1, 6]	MIC [2, 7]	MIC [3, 8]	MIC [4, 9]	MIC (S. aureus CB-951; [10])	MIC [5, 11]	SMILES	MBC [1]	MBC [2]	MBC [3]	MBC [4]	MBC (S. aureus CB-951)	MBC [5]	also measured
		8 µg/mL (≈ 15.9 µM)	> 32 µg/mL	0.03 µg/mL (≈ 0.0597 µM)	2 µg/mL (≈ 3.98 µM)	CCn1cc(C(=O)O)c(=O)c2cc(F)c(N3CCC(CNC(=O)Nc4ccccc4F)CC3)c(F)c21 [Compound 19, 7-[4-(2-fluorophenyl)aminocarbonylaminomethylpiperidinyl-1] 6,8-difluoro 1-ethyl]			8 µg/mL (≈ 15.9 µM)	> 32 µg/mL	0.06 µg/mL (≈ 0.119 µM)	2 µg/mL (≈ 3.98 µM)	
4 µg/mL (≈ 8.66 µM)	2 µg/mL (≈ 4.33 µM)	4 µg/mL (≈ 8.66 µM)	> 16 µg/mL	> 16 µg/mL	16 µg/mL (≈ 34.6 µM)	NCC1CCN(c2c(F)cc3c(=O)c(C(=O)O)cn(Cc4ccccc4Cl)c3c2F)CC1 [Compound 5, 7-(4-aminomethylpiperidinyl-1) 6,8-difluoro 1-(2-chlorobenzyl) 4-oxo 1,4-dihydroquinoleinyl-3 carboxylic acid]	8 µg/mL (≈ 17.3 µM)	4 µg/mL (≈ 8.66 µM)	8 µg/mL (≈ 17.3 µM)	> 16 µg/mL	> 16 µg/mL	> 16 µg/mL	

The remaining lines, values behind:

SMILES	MIC [1, 6]	MIC [2, 7]	MIC [3, 8]	MIC [4, 9]	MIC (S. aureus CB-951; [10])	MIC [5, 11]	MBC [1]	MBC [2]	MBC [3]	MBC [4]	MBC (S. aureus CB-951)	MBC [5]	also measured
CCn1cc(C(=O)O)c(=O)c2cc(F)c(N3CCC(CNC(=O)CCO)CC3)c(F)c21 [Compound 2, 7-(4-(3-hydroxypropionylaminomethyl)piperidinyl-1) 6,8-difluoro 1-ethyl 4-oxo 1,4-dihydroquinoleinyl-3 carboxylic acid]	2 µg/mL (≈ 4.57 µM)	0.5 µg/mL (≈ 1.14 µM)	8 µg/mL (≈ 18.3 µM)	> 32 µg/mL	4 µg/mL (≈ 9.14 µM)	4 µg/mL (≈ 9.14 µM)	4 µg/mL (≈ 9.14 µM)	1 µg/mL (≈ 2.29 µM)	8 µg/mL (≈ 18.3 µM)	> 32 µg/mL	4 µg/mL (≈ 9.14 µM)	4 µg/mL (≈ 9.14 µM)	
CCC(=O)NCC1CCN(c2c(F)cc3c(=O)c(C(=O)O)cn(CCF)c3c2F)CC1 [Compound 8, 7-[(4-propionylaminomethyl)piperidinyl-1] 6,8-difluoro1-fluoroethyl 4-oxo 1,4-dihydroquinoleinyl-3 carboxylic acid]	0.3 µg/mL (≈ 0.683 µM)	0.15 µg/mL (≈ 0.341 µM)	6 µg/mL (≈ 13.7 µM)	> 12 µg/mL	0.3 µg/mL (≈ 0.683 µM)	6 µg/mL (≈ 13.7 µM)	0.7 µg/mL (≈ 1.59 µM)	0.3 µg/mL (≈ 0.683 µM)	> 12 µg/mL	> 12 µg/mL	0.7 µg/mL (≈ 1.59 µM)	> 12 µg/mL	
CCn1cc(C(=O)O)c(=O)c2cc(F)c(N3CCC(CNC(=O)Nc4ccc(F)cc4F)CC3)c(F)c21 [Compound 18, 7-[4-(2,4-difluorophenyl)aminocarbonylaminomethylpiperidinyl-1] 6,8-difluoro 1-ethyl]	≤ 0.12 µg/mL	≤ 0.12 µg/mL	2 µg/mL (≈ 3.84 µM)	> 16 µg/mL	0.25 µg/mL (≈ 0.48 µM)	2 µg/mL (≈ 3.84 µM)	≤ 0.12 µg/mL	≤ 0.12 µg/mL	4 µg/mL (≈ 7.69 µM)	> 16 µg/mL	0.25 µg/mL (≈ 0.48 µM)	2 µg/mL (≈ 3.84 µM)	
CCn1cc(C(=O)O)c(=O)c2cc(F)c(N3CCC(CN)CC3)c(F)c21 [Compound a, 7-(4-aminomethylpiperidinyl-1) 6,8-difluoro 1-ethyl 4-oxo 1,4-dihydroquinoleinyl-3 carboxylic acid]													Minimal bactericidal concentration (MBC) ([1]; Acinetobacter Baumanii ATCC 17904): 0,25 μg/ml; Minimal inhibitory concentration (MIC) [1, 6]: 0,25 μg/ml; Minimal bactericidal concentration (MBC) ([2]; S. aureus ATCC 25923): 0,25 μg/ml; Minimal inhibitory concentration (MIC) [2, 7]: 0,25 μg/ml; Minimal bactericidal concentration (MBC) [3]: 0,5 μg/ml; Minimal inhibitory concentration (MIC) [3, 8]: 0,5 μg/ml; Minimal bactericidal concentration (MBC) ([4]; P. aeruginosa ATCC 22853): 4 µg/mL (≈ 10.9 µM); Minimal inhibitory concentration (MIC) [4, 9]: 2 µg/mL (≈ 5.47 µM); Minimal bactericidal concentration (MBC) (S. aureus CB-951; S. aureus CB-951, methicillino): 2 µg/mL (≈ 5.47 µM); Minimal inhibitory concentration (MIC) (S. aureus CB-951; [10]): 2 µg/mL (≈ 5.47 µM); Minimal bactericidal concentration (MBC) ([5]; S. faecalis ATCC 8043): 0,5 μg/ml; Minimal inhibitory concentration (MIC) [5, 11]: 0,5 μg/ml
